This is an account of results in US20220187282A1, “CARDIOMYOCYTE PROLIFERATION” (The Council of the Queensland Institute of Medical Research, priority 2019, published 2022).

For one test, the system named is mature hCOs. Description: mature hCO, cardiomyocyte proliferation (Ki-67 intensity, Ki-67+ α-actinin cardiomyocytes). In kind it is cell-based, human. To be noted: mature hCO; for Ki-67+ cardiomyocytes: 2 days, compound 3 at 3 μM, 63 at 0.3 μM, 65 at 1 μM; for proliferative response (Ki-67 intensity) with 10 μM simvastatin: 1 μM compound 65, 3 μM compound 3 or 10 μM compound 6.28; for proliferation above the optimal concentrations: above 3 μM (compound 3), above 1 μM (compound 65). How it is done: hCOs were cultured in CTRL medium for formation for 5 days and then either kept in CTRL medium culture or changed to maturation medium (Mills et al., 2017a) comprising DMEM without glucose, glutamine and phenol red (ThermoFisher Scientific) supplemented with 4% […](without insulin) (ThermoFisher Scientific), 1% GlutaMAX (ThermoFisher Scientific), 200 μM L-ascorbic acid 2-phosphate sesquimagnesium salt hydrate and 1% Penicillin/Streptomycin (ThermoFisher Scientific), 1 mmol/L glucose and 100 μmon palmitic acid (conjugated to bovine serum albumin within B27 by incubating for 2h at 37° C., Sigma) with changes every 2-3 days.
Whole-Mount Immunostaining hCOs were fixed for 60 min with 1% paraformaldehyde (Sigma) at room temperature and washed 3× with PBS, after which they were incubated with primary antibodies (see Star Methods Table) in Blocking Buffer, 5% FBS and 0.2% Triton-X-100 (Sigma) in PBS overnight at 4° C. Cells were then washed in Blocking Buffer 2× for 2 h and subsequently incubated with secondary antibodies (see Star Methods Table) and Hoechst33342 (1:1000) overnight at 4° C. They were washed in Blocking Buffer 2× for 2 h and imaged in situ or mounted on microscope slides using Fluoromount-G (Southern Biotech).
For screening hCOs were imaged using a Leica DMi8 high content imaging microscope for in situ imaging. Custom batch processing files were written in Matlab R2013a (Mathworks) to remove the background, calculate the image intensity, and export the batch data to an Excel (Microsoft) spreadsheet.
For more detailed images an Olympus IX81 confocal microscope was used for mounted hCO imaging. For cell cycle analysis experiments 3 random fields of view were imaged and manually quantified for proliferation. These were added together to calculate the percentage of hPSC-CM proliferation in each hCO.
Hits were next validated in mature hCOs using a targeted concentration range based on their active concentrations in the initial immature hCO screen (FIG. 3A). Proliferation markers were quantified using high magnification confocal imaging as we found flow cytometry to be inaccurate in hCO (data not shown). Compounds 3, 63 and 65 had no impact on contractile force (FIG. 3B) at concentrations of 3 μM, 0.3 μM and 1 μM, respectively. […] The effects of both compound 3 and compound 65 were reversible, with proliferation ceasing within 5 days of compound withdrawal (FIG. 8B). Therefore, compound 3 (FIG. 3G) and compound 65 (Goldberg et al., 2009) (FIG. 3H) are both capable of inducing bona fide cardiomyocyte proliferation in mature hCOs without adversely affecting contractile properties.

A further test concerns mature hCO. The test is described as follows: single organoid quantitative proteomics of mature hCO. It is filed as cell-based, human. To be noted: for cell cycle programs regulated at the protein level: mature hCO, 2 days. How it is done: Single hCO were washed 2× in PBS and snap frozen and stored at −80° C. Tissues were lysed in by tip-probe sonication in 1% SDS containing 100 mM Tris pH 8.0, 10 mM tris(2-carboxyethyl)phosphine, 40 mM 2-chloroacetamide and heated to 95° C. for 5 min. Proteins were purified using a modified Single-Pot Solid-Phase-enhanced Sample Preparation (SP3) strategy (Hughes et al., 2014). Briefly, Proteins were bound to Sera-Mag carboxylate coated paramagnetic beads in 50% acetonitrile containing 0.8% formic acid (v/v) (ThermoFisher Scientific). The beads were washed twice with 70% ethanol (v/v) and once with 100% acetonitrile. Proteins were digested on the beads in 100 mM Tris pH 7.5 containing 10% 2,2,2-Trifluoroethanol overnight at 37° C. with 200 ng of sequencing grade LysC (Wako Chemicals) and trypsin (Sigma). Beads were removed and peptides acidified to 1% trifluoroacetic acid prior to purification by styrene divinyl benzene-reversed phase sulfonated solid phase extraction microcolumns. Peptides were spiked with iRT peptides (Biognosys) and analysed on an Easy-nLC1200 coupled to a Q-Exactive HF in positive polarity mode. Peptides were separated using an in-house packed 75 μm×50 cm pulled column (1.9 μm particle size, C18AQ; Dr Maisch) with a gradient of 2-35% acetonitrile containing 0.1% FA over 120 min at 300 nL/min at 60° C. The instrument was operated in data-independent acquisition (DIA) mode essentially as described previously (Bruderer et al., 2017). Briefly, an MS1 scan was acquired from 350-1650 m/z (120,000 resolution, 3e6 AGC, 50 ms injection time) followed by 20 MS/MS variable sized isolation windows with HCD (30,000 resolution, 3e6 AGC, 27 NCE). A spectral library was created by fractionating a pooled mix of peptides from 10 separate hCO on an inhouse packed 320 μm×25 cm column (3 μm particle size, BEH; Waters) with a gradient of 2-40% acetonitrile containing 10 mM ammonium formate over 60 min at 6 μL/min using an Agilent 1260 HPLC. A total of 12 concatenated fractions were analysed using the identical LC-MS/MS conditions above except the instrument was operated in data-dependent acquisition (DDA) mode. Briefly, an MS1 scan was acquired from 350-1650 m/z (60,000 resolution, 3e6 AGC, 50 ms injection time) followed by 20 MS/MS with HCD (1.4 m/z isolation, 15,000 resolution, 1e5 AGC, 27 NCE). DDA data were processed with Andromeda in MaxQuant v1.5.8.3 (Cox and Mann, 2008) against the human UniProt database (January 2016) using all default settings with peptide spectral matches and protein false discovery rate (FDR) set to 1%. DIA data were processed with Spectronaut v11 (Bruderer et al., 2015) using all default settings with precursor and protein FDR set to 1% and quantification performed at MS2.
Proteomic data were Log 2 transformed and median normalised. Removal of unwanted variation method (RUV) was applied to remove any batch effects (Gagnon-Bartsch et al., 2013). Differential abundance was determined with two sample t-tests with FDR-based multiple hypothesis testing correction. GO analysis was performed with DAVID v6.8 and gene ontology terms from BP_FAT (Huang da et al., 2009) and heat-maps and hierarchical clustering was performed using GENE-E (Broad Institute).
In order to determine the biological processes driving the pro-proliferative effects of our hit compounds, we performed RNA-sequencing (RNA-seq) and single organoid quantitative proteomics (FIG. 4A). These analyses were performed on hCOs treated with compounds 3, 63 and 65 at concentrations of 3 μM, 0.3 μM and 1 μM, respectively. RNA-seq for hCO treated with compounds 3 and 65 clustered distinctly in principal component analysis (FIG. 4B) and regulated a total of 239 and 207 genes (FIG. 9A), respectively.

Regarding `Cc1ccc(NC(=O)c2ccnc(N3CCOCC3)c2)cc1Nc1ccnc(N2CC(C)OC(C)C2)n1` (stereo not drawn) [compound 3], the “Ki-67+ cardiomyocytes with 10 μM simvastatin” value in the test with mature hCOs (3 μM compound 3) was “abolished”. Besides, in the test on mature hCOs, the “Ki-67+ cardiomyocytes” value was “increased”, the “proliferative response (Ki-67 intensity) with 10 μM simvastatin” value is recorded as “abolished” and the “proliferation above the optimal concentrations” value is “no further increase”. In addition, the “proliferation signature proteins (cell cycle network, mevalonate enzymes, nuclear transporters)” value in the test with mature hCO (mature hCO proteomics) is on record as “induced”. Moreover, the “cell cycle programs regulated at the protein level” value with mature hCO was “DNA replication, G1/S transition and G2/M transition”.
On to `Cc1cc(Oc2ccnc(Nc3ccc(S(N)(=O)=O)cc3)c2)c(-c2ccccn2)nc1C` [compound 65], for which, in the test on mature hCOs, the “Ki-67+ cardiomyocytes” value was “increased”, the “proliferative response (Ki-67 intensity) with 10 μM simvastatin” value is “abolished” and the “proliferation above the optimal concentrations” value is given as “no further increase”. In the test on mature hCO (mature hCO proteomics), the “induction of the mevalonate pathway (cholesterol biosynthetic process enzymes)” value is listed as “most robust inducers” and the “proliferation signature proteins (cell cycle network, mevalonate enzymes, nuclear transporters)” value is recorded as “induced”. Also, the “cell cycle programs regulated at the protein level” value with mature hCO is “DNA replication, G1/S transition and G2/M transition”.
